According to EPA's CvTdb concentration-time database:

Assays:
Assay in all cases: concentration in plasma after dosing
[1] = test system: Rat; details: 11 min; dosed: Glyoxylic acid monohydrate; 50 mg/kg; iv; Female; Harlan Sprague Dawley
[2] = test system: Rat; details: dosed: Glyoxylic acid monohydrate, 50 mg/kg, iv, Female, Harlan Sprague Dawley
[3] = test system: Rat; details: dosed: Glyoxylic acid monohydrate, 50 mg/kg, iv, Female, Harlan Sprague Dawley; remark: listed apart in the source
[4] = test system: Rat; details: 14 min; dosed: Glyoxylic acid monohydrate; 50 mg/kg; iv; Male; Harlan Sprague Dawley
[5] = test system: Rat; details: dosed: Glyoxylic acid monohydrate, 50 mg/kg, iv, Female, Harlan Sprague Dawley; remark: listed apart in the source
[6] = test system: Rat; details: dosed: Glyoxylic acid monohydrate, 50 mg/kg, iv, Male, Harlan Sprague Dawley
[7] = test system: Rat; details: dosed: Glyoxylic acid monohydrate, 50 mg/kg, iv, Female, Harlan Sprague Dawley; remark: listed apart in the source
[8] = test system: Rat; details: dosed: Glyoxylic acid monohydrate, 50 mg/kg, iv, Female, Harlan Sprague Dawley; remark: listed apart in the source
[9] = test system: Rat; details: dosed: Glyoxylic acid monohydrate, 50 mg/kg, iv, Female, Harlan Sprague Dawley; remark: listed apart in the source
[10] = test system: Rat; details: dosed: Glyoxylic acid monohydrate, 50 mg/kg, iv, Female, Harlan Sprague Dawley; remark: listed apart in the source
[11] = test system: Rat; details: dosed: Glyoxylic acid monohydrate, 50 mg/kg, iv, Male, Harlan Sprague Dawley; remark: listed apart in the source
[12] = test system: Rat; details: dosed: Glyoxylic acid monohydrate, 50 mg/kg, iv, Female, Harlan Sprague Dawley; remark: listed apart in the source
[13] = test system: Rat; details: dosed: Glyoxylic acid monohydrate, 50 mg/kg, iv, Male, Harlan Sprague Dawley; remark: listed apart in the source
[14] = test system: Rat; details: dosed: Glyoxylic acid monohydrate, 50 mg/kg, iv, Female, Harlan Sprague Dawley; remark: listed apart in the source
[15] = test system: Rat; details: dosed: Glyoxylic acid monohydrate, 50 mg/kg, iv, Female, Harlan Sprague Dawley; remark: listed apart in the source
[16] = test system: Rat; details: dosed: Glyoxylic acid monohydrate, 50 mg/kg, iv, Female, Harlan Sprague Dawley; remark: listed apart in the source
[17] = test system: Rat; details: dosed: Glyoxylic acid monohydrate, 50 mg/kg, iv, Harlan Sprague Dawley
[18] = test system: Rat; details: dosed: Glyoxylic acid monohydrate, 50 mg/kg, iv, Female, Harlan Sprague Dawley; remark: listed apart in the source
[19] = test system: Rat; details: 14 min; dosed: Glyoxylic acid monohydrate; 50 mg/kg; iv; Female; Harlan Sprague Dawley
[20] = test system: Rat; details: 11 min; dosed: Glyoxylic acid monohydrate; 50 mg/kg; iv; Female; Harlan Sprague Dawley; remark: listed apart in the source

O.O=CC(=O)O [Glyoxylic acid monohydrate]
Details | concentration in plasma [ng/mL]
[1] | 9560
[4] | 7680
[19] | 8370
[20] | 11600

Details | concentration in plasma [ng/mL]
[2], 0.5 h | 3380
[2], 11 min | 12000
[3], 0.5 h | 2690
[3], 11 min | 10700
[5], 5 min | 27700
[5], 22 min | 3860
[6], 0.3 h | 5910
[6], 2 min | 92900
[7], 0.3 h | 3380
[7], 2 min | 70100
[8], 5 min | 28600
[8], 22 min | 3840
[9], 2 min | 99000
[9], 14 min | 6240
[10], 0.5 h | 2850
[10], 8 min | 15800
[11], 2 min | 66100
[11], 14 min | 5250
[12], 0.5 h | 3360
[12], 8 min | 14700
[13], 0.3 h | 6320
[13], 5 min | 34200
[14], 0.5 h | 2820
[14], 8 min | 16900
[15], 0.3 h | 5270
[15], 5 min | 26200
[16], 8 min | 15800
[16], 22 min | 3900
[18], 8 min | 17400
[18], 22 min | 4560

concentration in plasma [ng/mL], [17]
Details | 0.3 h | 2 min | 5 min | 8 min | 11 min | 14 min | 22 min
Female | 4380 | 102000 | 24000 | 10100 | 11300 | 8040 | 3600
Male | 4850 | 63200 | 29800 | – | 9000 | 8390 | 4090
